Laboratory results as given in patent publication US11066401B2, “Pyrimidine compound, chloride salt thereof, and manufacturing and application of same” (SHENZHEN HAIBIN PHARMACEUTICAL CO., LTD, priority 2016, dated 2021).
Where a name gives a salt, the structure may show the parent alone. Read-outs that look alike come from different tables or passages of the source.

Key:
[1] = Test for hygroscopicity (Chinese Pharmacopeia 2010, Appendix XIX J); assay type: physicochemical
Protocol: The experiment was carried out according to Guiding Principles of Drug Hygroscopicity Test, Appendix XIX J, Second Part, Chinese Pharmacopeia (2010), the weight increased by hygroscopy of samples (compound shown in Formula (I) and salts thereof prepared in EXAMPLES 1-17) was calculated respectively, the results were shown in Table 4.

[2] = Test for stability: related substances under high temperature and illumination (HPLC); assay type: physicochemical; settings: for Related substances Day 10 under high temperature / Related substances Day 10 under illumination condition / Related substances Day 0: acetonitrile-water (1:1) solution; for Related substances Day 10 under high temperature: 60° C., in % (unit assumed); for Related substances Day 10 under high temperature / Related substances Day 10 under illumination condition: 10 days, area normalization; for Related substances Day 10 under illumination condition: 4500 lx±500 lx; for Related substances Day 0: day 0, area normalization
Protocol: The experiment was carried out according to Guiding Principles of Active Pharmaceutical Ingredient and Pharmaceutical Formulation Stability Test, Appendix XIX C, Second Part, Chinese Pharmacopeia (2010), the increase of related substance of the solution of compounds shown in formula (I) and salts thereof (EXAMPLES 1-17) under high temperature condition (60° C.) and illumination (the light intensity was 4500 lx±500 lx) was detected to evaluate the stability.
Wherein, the method for detecting related substance was shown as following:
HPLC: Waters 2695 UV Detector
Chromatographic Column: Diamonsil C18 (2) 5 μm, 150×4.6 mm
Detection wavelength: 322 nm
Column temperature: 30° C.
Mobile phase B: buffer (900 ml water+10 ml triethylamine+5 ml phosphoric acid, being diluted to 1000 ml with water)
The testing samples were prepared by using acetonitrile-water (1:1) solution with a concentration of 10-100 μg/ml, kept under high temperature (60° C.) and illumination (the light intensity was 4500 lx±500 lx) respectively for 10 days, the mass of related substance was determined on day 0 and day 10 (calculated by using area normalization), the results were shown in Table 6.

[3] = Pharmacokinetic test, absolute bioavailability in rats; assay type: in vivo; settings: male SD rats, i.g. 40 mg/kg vs i.v. 20 mg/kg
Protocol: 48 male SD rats with a body weight of 200-220 g were randomly divided into 8 groups with 6 mice each group, administered the compound shown in Formula (I), the hydrochloride salt, mesylate and acetate thereof intragastrically (i.g.) and intravenously (i.v.) respectively, and the protocol was shown in Table 7:
Intragastric administration: 2% of HPMC
Intravenous administration: a solution prepared with 20% PEG
The rats were fasted for 12 hours with free access to water prior to experiment; and fed together 2 hours after administration.
Blood sampling time points: 5 min (only administering intravenously), 0.25 h, 0.5 h, 1.0 h, 2.0 h, 4.0 h, 6.0 h, 8.0 h and 24 h after administration;
Sample treatment: 0.3 ml venous blood was obtained from rats' posterior ocular vein plexus at the above-mentioned time points, put into a heparinized tube, centrifuged for 5 minutes at 11000 rpm to separate plasma, then frozen in a refrigerator at −20° C.
The concentration of parent drugs in rat's plasma was detected by utilizing LC/MS/MS.
Wherein, F: absolute bioavailability; AUC: area under the curve; D: Dosage

PIM3 = PIM3 (Homo sapiens, UniProt Q86V86); experiment: Assay of PIM kinase activity, PIM3; assay type: biochemical; settings: 6 concentrations, initial concentration 30 nM; read-out: IC50 PIM 3
Protocol: (§1) Dose-dependent experiments on PIM1, PIM2 and PIM3 were commissioned to Shanghai Runnuo Biotechnology, 6 concentration gradients were set, the initial concentration was 30 nM, 200 nM and 30 nM, then diluted successively, the inhibitive effects of compounds on PIM kinase was tested, the results were shown in Table 9.

[4] = Test of solubility in water (HPLC)
Protocol: Wherein, the chromatographic condition was shown as follows:
Chromatographic Column: C18
Column temperature: 25° C.
Mobile phase A: 0.1% TFA-water
Mobile phase B: 0.1% TFA-CAN

PIM2 = PIM2 (Homo sapiens, UniProt Q9P1W9); experiment: Assay of PIM kinase activity, PIM2; assay type: biochemical; settings: 6 concentrations, initial concentration 200 nM; read-out: IC50 PIM 2
PIM2, sequence (Q9P1W9 whole entry): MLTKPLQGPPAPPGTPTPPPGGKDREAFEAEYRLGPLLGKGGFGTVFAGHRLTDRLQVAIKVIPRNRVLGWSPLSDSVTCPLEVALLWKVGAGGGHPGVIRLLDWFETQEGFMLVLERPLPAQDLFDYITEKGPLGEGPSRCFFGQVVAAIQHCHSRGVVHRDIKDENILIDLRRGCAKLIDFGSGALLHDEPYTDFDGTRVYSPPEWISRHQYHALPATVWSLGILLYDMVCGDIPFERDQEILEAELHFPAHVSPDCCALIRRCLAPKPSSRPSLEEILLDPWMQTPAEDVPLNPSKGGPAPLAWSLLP
Protocol: as §1

PIM1 = PIM1 (Homo sapiens, UniProt P11309); experiment: Assay of PIM kinase activity, PIM1; assay type: biochemical; settings: 6 concentrations, initial concentration 30 nM; read-out: IC50 PIM 1
PIM1, sequence (P11309 whole entry): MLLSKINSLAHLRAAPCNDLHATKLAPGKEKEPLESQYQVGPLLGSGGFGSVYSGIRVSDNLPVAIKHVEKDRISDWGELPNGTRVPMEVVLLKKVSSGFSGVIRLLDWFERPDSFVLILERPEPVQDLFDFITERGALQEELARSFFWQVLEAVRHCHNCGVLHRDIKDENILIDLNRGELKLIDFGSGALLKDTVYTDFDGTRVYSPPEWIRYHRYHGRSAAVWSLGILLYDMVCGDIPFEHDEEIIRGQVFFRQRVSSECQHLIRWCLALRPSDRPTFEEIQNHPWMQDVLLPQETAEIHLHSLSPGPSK
Protocol: as §1

Row | Molecule | Weight increased by hygroscopy [1] [%] | Related substances Day 10 under high temperature [2] | Related substances Day 10 under illumination condition [2] [%] | Related substances Day 0 [2] [%] | Absolute Bioavailability [3] [%] | Weight increased by hygroscopy ([1]; listed as hydrochloride salt) [%] | IC50 (PIM3) [nM] | solubility in water [4] | IC50 (PIM2) [nM] | IC50 (PIM1) [nM] | increase of the amount of related substance ([2]; after 10 days, heat, light) [%] | melting point [°C]
1 | CC(O)C(=O)O.Nc1sc(-c2c(F)cccc2F)nc1C(=O)Nc1cncnc1OCC1CCNCC1 [EXAMPLE 11] | 3.67 | 10.78 | 5.67 | 0.54 |  |  |  |  |  |  |  | 
2 | Nc1sc(-c2c(F)cccc2F)nc1C(=O)Nc1cncnc1OCC1CCNCC1.O=C(O)/C=C\C(=O)O [EXAMPLE 4] | 5.45 | 4.54 | 2.22 | 0.46 |  |  |  |  |  |  |  | 
3 | Nc1sc(-c2c(F)cccc2F)nc1C(=O)Nc1cncnc1OCC1CCNCC1.O=C(O)c1ccccc1 [EXAMPLE 9] | 7.53 | 5.56 | 4.44 | 0.56 |  |  |  |  |  |  |  | 
4 | Nc1sc(-c2c(F)cccc2F)nc1C(=O)Nc1cncnc1OCC1CCNCC1.O=C(O)CC(O)(CC(=O)O)C(=O)O [EXAMPLE 8] | 5.67 | 7.34 | 5.52 | 0.52 |  |  |  |  |  |  |  | 
5 | Br.Nc1sc(-c2c(F)cccc2F)nc1C(=O)Nc1cncnc1OCC1CCNCC1 [EXAMPLE 3] | 4.32 | 3.45 | 1.67 | 0.52 |  |  |  |  |  |  |  | 
6 | Nc1sc(-c2c(F)cccc2F)nc1C(=O)Nc1cncnc1OCC1CCNCC1.O=S(=O)(O)O [EXAMPLE 7] | 3.56 | 4.67 | 2.45 | 0.52 |  |  |  |  |  |  |  | 
7 | Nc1sc(-c2c(F)cccc2F)nc1C(=O)Nc1cncnc1OCC1CCNCC1 [EXAMPLE 2] | 0.52 | 0.68 | 0.56 | 0.49 | 32.2 | 0.52 | 4.36 | about 1 mg/mL | 1.54 | 2.31 | ≤ 0.19 | 
8 | Ascorbate [EXAMPLE 17] | 5.67 | 18.98 | 6.66 | 0.56 |  |  |  |  |  |  |  | 
9 | Palmitate [EXAMPLE 14] | 6.43 | 6.89 | 3.67 | 0.66 |  |  |  |  |  |  |  | 
10 | Nc1sc(-c2c(F)cccc2F)nc1C(=O)Nc1cncnc1OCC1CCNCC1.O=C(O)/C=C/C(=O)O [EXAMPLE 15] | 4.77 | 9.12 | 6.54 | 0.56 |  |  |  |  |  |  |  | 
11 | Nc1sc(-c2c(F)cccc2F)nc1C(=O)Nc1cncnc1OCC1CCNCC1 [EXAMPLE 1, 5-amino-2-(2,6-difluorophenyl)-N-(4-(piperidine-4-methoxy)pyrimidine-5-) thiazole-4-formamide] | 3.35 | 5.02 | 3.02 | 0.45 | 2.2 |  | 23 |  | 8.09 | 10 |  | 
12 | Cc1ccc(S(=O)(=O)O)cc1.Nc1sc(-c2c(F)cccc2F)nc1C(=O)Nc1cncnc1OCC1CCNCC1 [EXAMPLE 13] | 5.78 | 8.94 | 5.67 | 0.65 |  |  |  |  |  |  |  | 
13 | Nc1sc(-c2c(F)cccc2F)nc1C(=O)Nc1cncnc1OCC1CCNCC1 (as salt: hydrochloride) [EXAMPLE 2] |  |  |  |  |  |  |  |  |  |  |  | 236.1 to 239.4
14 | Tartrate [EXAMPLE 16] | 7.88 | 6.89 | 3.33 | 0.63 |  |  |  |  |  |  |  | 
15 | CC(=O)O.Nc1sc(-c2c(F)cccc2F)nc1C(=O)Nc1cncnc1OCC1CCNCC1 [EXAMPLE 12] | 9.21 | 3.56 | 2.65 | 0.62 | 5.34 |  |  |  |  |  |  | 
16 | CS(=O)(=O)O.Nc1sc(-c2c(F)cccc2F)nc1C(=O)Nc1cncnc1OCC1CCNCC1 [EXAMPLE 10] | 8.21 | 35.6 | 23 | 0.54 | 7.32 |  |  |  |  |  |  | 
17 | Nc1sc(-c2c(F)cccc2F)nc1C(=O)Nc1cncnc1OCC1CCNCC1.O=C(O)CCC(=O)O [EXAMPLE 6, Succinate] | 7.56 | 8.82 | 4.56 | 0.55 |  |  |  |  |  |  |  | 
